Results as given in publication PMC6437697 (Journal of Medicinal Chemistry, 2019).

Tests used:
Assay in all cases: KINOMEscan
Assay type in all cases: binding
Conditions in all cases: read-out: % control activity remaining
[1] = target: T1, RSK2(Kin.Dom.2-C-terminal) (Homo sapiens, UniProt P51812)
T1 construct: RSK2(Kin.Dom.2-C-terminal); purchased Eurofins DiscoverX KINOMEscan

RET = target: T2, RET (Homo sapiens, UniProt P07949)
T2 construct: purchased Eurofins DiscoverX KINOMEscan

MAP4K3 = target: T3, MAP4K3 (Homo sapiens, UniProt Q8IVH8)
T3 construct: purchased Eurofins DiscoverX KINOMEscan
T3 sequence (Q8IVH8 1-894): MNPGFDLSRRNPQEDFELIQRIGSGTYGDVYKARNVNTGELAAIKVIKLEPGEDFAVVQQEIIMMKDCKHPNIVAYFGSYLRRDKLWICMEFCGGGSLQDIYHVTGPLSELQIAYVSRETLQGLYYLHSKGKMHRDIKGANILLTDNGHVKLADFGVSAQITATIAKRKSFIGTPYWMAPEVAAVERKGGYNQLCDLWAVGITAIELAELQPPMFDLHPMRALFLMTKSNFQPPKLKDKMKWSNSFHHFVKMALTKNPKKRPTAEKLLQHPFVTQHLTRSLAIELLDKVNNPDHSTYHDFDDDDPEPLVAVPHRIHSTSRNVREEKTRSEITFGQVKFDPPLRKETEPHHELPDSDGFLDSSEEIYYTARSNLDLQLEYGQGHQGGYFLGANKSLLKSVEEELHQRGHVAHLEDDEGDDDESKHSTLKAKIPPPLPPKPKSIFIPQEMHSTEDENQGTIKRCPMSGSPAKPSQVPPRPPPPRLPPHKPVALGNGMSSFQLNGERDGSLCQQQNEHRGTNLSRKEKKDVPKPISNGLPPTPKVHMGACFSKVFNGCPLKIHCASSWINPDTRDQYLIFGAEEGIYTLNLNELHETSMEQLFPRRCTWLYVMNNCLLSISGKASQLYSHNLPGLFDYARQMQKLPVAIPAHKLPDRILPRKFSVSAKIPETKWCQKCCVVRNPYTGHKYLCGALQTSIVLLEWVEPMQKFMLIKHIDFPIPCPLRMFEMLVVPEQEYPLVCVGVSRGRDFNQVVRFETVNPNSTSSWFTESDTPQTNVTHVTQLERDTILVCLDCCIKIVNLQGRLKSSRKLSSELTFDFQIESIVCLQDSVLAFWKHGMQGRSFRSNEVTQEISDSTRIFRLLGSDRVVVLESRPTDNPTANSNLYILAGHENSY

GRK4 = target: T4, GRK4 (Homo sapiens, UniProt P32298)
T4 construct: purchased Eurofins DiscoverX KINOMEscan
T4 sequence (P32298 whole entry): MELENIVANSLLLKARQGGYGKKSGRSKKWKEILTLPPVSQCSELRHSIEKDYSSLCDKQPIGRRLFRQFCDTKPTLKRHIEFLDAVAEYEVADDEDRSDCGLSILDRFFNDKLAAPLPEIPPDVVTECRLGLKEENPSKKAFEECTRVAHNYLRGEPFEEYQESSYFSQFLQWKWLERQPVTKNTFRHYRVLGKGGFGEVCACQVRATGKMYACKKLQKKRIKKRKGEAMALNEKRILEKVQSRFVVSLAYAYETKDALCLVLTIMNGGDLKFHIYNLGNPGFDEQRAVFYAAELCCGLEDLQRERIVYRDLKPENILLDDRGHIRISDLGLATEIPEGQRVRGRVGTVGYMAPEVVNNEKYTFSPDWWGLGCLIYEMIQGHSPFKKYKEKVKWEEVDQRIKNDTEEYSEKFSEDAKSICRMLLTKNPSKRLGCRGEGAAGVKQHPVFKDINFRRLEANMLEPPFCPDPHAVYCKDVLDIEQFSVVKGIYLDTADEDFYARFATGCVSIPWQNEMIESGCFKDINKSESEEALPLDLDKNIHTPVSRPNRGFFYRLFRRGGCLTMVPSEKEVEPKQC

TNK1 = target: T5, TNK1 (Homo sapiens, UniProt Q13470)
T5 construct: purchased Eurofins DiscoverX KINOMEscan
T5 sequence (Q13470 1-666): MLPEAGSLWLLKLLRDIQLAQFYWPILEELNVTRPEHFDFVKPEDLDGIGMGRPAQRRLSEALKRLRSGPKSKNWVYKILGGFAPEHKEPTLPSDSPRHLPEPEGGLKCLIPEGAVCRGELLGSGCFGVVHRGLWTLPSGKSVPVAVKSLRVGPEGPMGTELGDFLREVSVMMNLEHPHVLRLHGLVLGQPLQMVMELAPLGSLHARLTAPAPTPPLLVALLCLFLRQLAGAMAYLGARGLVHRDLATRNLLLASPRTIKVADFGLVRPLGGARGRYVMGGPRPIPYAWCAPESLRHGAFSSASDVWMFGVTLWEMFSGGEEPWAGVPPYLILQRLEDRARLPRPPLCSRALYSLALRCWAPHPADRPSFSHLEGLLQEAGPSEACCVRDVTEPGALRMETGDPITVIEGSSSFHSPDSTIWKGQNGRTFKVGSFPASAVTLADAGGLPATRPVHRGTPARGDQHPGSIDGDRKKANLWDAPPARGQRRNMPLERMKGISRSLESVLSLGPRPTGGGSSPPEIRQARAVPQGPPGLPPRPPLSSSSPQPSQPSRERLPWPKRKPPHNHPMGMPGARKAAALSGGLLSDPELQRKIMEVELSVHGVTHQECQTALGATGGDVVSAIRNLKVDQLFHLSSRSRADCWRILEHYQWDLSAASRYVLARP

[2] = target: T6, TYK2(JH1domain-catalytic) (Homo sapiens, UniProt P29597)
T6 construct: TYK2(JH1domain-catalytic); purchased Eurofins DiscoverX KINOMEscan
T6 sequence (P29597 871-1187 limits assumed): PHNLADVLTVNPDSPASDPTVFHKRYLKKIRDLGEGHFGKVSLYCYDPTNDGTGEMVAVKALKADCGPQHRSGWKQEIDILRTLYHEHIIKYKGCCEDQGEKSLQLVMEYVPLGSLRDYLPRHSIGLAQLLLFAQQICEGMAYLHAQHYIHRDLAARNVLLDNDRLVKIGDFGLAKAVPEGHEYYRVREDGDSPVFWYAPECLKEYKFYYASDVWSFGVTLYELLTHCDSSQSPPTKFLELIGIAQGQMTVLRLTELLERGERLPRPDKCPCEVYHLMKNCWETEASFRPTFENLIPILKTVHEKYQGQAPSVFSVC

MYLK2 = target: T7, MYLK2 (Homo sapiens, UniProt Q9H1R3)
T7 construct: purchased Eurofins DiscoverX KINOMEscan
T7 sequence (Q9H1R3 whole entry): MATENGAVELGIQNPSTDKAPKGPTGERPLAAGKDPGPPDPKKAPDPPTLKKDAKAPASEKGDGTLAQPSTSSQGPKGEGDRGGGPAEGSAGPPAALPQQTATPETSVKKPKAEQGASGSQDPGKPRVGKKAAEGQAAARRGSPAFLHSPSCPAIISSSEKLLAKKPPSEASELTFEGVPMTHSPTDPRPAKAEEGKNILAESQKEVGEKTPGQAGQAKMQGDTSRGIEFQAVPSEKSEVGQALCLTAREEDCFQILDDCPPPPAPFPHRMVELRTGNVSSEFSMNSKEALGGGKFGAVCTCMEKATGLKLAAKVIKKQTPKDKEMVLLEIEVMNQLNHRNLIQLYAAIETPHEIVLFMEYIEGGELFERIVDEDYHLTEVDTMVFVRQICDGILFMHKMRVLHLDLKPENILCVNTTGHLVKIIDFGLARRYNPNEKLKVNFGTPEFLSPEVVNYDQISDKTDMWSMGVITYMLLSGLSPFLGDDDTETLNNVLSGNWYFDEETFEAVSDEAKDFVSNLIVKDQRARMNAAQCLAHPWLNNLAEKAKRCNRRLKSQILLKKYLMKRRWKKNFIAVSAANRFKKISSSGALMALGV

[3] = target: T8, RSK1(Kin.Dom.2-C-terminal) (Homo sapiens, UniProt Q15418)
T8 construct: RSK1(Kin.Dom.2-C-terminal); purchased Eurofins DiscoverX KINOMEscan
T8 sequence (Q15418 418-675 limits assumed): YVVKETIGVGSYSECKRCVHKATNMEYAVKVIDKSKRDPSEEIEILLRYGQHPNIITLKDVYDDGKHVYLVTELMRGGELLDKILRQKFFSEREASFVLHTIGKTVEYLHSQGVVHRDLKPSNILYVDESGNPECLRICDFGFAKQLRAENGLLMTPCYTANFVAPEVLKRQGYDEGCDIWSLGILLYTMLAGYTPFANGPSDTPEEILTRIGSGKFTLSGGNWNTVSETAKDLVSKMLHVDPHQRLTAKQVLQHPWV

MYLK = target: T9, MYLK (Homo sapiens, UniProt Q15746)
T9 construct: purchased Eurofins DiscoverX KINOMEscan
T9 sequence (Q15746 whole entry): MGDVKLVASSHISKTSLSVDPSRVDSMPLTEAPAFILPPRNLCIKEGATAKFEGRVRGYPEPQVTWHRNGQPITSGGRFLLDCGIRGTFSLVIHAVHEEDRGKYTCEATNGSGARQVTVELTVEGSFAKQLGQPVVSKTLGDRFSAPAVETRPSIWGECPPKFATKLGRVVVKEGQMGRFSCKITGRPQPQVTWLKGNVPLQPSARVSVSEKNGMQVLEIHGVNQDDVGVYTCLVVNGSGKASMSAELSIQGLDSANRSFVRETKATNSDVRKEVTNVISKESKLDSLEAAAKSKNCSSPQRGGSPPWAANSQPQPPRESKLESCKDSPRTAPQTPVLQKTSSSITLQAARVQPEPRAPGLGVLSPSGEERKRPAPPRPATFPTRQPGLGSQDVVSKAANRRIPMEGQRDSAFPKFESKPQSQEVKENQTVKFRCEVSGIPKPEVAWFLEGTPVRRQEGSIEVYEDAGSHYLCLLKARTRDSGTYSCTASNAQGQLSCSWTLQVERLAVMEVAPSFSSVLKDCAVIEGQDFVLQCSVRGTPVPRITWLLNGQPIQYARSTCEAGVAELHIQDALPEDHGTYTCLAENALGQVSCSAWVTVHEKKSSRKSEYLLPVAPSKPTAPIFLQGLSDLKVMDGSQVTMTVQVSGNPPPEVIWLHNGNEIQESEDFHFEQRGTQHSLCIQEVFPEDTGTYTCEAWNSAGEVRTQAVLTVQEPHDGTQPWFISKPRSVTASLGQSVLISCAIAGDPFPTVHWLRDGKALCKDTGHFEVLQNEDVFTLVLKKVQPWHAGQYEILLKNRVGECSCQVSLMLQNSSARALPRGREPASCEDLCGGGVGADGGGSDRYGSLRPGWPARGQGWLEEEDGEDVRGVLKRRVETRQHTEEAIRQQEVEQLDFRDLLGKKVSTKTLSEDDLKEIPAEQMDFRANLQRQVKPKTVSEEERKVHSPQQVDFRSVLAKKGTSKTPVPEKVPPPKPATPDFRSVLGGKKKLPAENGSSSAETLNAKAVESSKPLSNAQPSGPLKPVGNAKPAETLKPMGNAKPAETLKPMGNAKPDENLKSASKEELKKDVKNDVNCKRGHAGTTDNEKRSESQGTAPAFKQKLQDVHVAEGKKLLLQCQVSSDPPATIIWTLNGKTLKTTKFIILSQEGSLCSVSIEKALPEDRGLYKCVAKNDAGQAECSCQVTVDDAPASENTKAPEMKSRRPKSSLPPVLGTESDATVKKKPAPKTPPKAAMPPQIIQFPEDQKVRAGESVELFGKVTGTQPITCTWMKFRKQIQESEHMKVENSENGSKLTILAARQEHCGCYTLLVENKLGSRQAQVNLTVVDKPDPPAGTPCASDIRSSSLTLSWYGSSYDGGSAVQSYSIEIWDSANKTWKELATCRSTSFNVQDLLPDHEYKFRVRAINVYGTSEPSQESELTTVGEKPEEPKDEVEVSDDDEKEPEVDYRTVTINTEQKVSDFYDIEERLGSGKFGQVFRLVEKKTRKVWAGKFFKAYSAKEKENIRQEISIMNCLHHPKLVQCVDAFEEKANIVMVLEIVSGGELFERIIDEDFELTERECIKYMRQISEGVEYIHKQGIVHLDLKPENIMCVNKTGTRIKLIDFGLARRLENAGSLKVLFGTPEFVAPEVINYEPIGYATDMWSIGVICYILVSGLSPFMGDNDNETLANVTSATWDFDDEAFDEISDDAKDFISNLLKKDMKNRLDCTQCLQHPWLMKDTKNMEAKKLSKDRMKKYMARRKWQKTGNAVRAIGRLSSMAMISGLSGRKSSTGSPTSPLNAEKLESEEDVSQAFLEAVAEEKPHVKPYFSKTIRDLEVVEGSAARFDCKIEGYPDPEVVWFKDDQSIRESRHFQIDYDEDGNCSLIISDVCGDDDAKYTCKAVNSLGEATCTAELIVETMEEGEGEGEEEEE

T2 sequence (P07949 29-1114): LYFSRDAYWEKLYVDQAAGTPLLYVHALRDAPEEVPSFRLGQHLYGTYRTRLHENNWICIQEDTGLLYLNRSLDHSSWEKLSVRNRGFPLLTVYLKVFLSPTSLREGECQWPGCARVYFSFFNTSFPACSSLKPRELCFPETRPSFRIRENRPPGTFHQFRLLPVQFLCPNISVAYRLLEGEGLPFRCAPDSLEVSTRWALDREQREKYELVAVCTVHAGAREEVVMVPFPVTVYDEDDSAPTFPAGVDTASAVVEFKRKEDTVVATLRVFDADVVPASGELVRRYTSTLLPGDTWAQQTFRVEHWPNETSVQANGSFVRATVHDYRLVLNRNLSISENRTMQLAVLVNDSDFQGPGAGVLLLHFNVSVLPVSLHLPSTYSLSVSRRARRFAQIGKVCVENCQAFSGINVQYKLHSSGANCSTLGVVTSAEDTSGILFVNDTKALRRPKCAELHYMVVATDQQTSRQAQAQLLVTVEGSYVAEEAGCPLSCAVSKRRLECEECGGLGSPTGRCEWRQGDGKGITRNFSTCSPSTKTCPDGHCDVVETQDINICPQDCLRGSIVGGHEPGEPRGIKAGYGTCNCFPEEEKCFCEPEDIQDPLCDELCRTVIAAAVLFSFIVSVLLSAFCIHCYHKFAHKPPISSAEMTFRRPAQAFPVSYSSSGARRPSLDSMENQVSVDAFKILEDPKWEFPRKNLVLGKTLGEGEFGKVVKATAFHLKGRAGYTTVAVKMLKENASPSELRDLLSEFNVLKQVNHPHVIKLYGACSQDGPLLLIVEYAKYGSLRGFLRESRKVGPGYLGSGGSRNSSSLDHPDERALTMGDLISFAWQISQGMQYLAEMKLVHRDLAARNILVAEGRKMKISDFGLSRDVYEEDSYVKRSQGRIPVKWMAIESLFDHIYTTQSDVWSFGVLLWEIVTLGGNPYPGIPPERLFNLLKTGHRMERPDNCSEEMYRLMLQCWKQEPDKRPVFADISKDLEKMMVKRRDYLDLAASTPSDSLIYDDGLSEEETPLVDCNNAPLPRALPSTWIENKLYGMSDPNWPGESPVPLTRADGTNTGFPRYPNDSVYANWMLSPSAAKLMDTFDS
T1 sequence (P51812 422-679 limits assumed): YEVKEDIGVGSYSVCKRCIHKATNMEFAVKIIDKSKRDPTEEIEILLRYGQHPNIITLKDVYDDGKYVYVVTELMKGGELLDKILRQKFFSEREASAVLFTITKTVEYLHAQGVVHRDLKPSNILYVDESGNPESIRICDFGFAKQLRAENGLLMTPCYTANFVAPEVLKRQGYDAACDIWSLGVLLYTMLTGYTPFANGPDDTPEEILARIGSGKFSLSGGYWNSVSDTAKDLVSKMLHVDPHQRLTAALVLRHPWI

Row | Structure (SMILES) | remaining binding at 1 µM [1] [%] | remaining binding at 1 µM (RET) [%] | remaining binding at 1 µM (MAP4K3) [%] | remaining binding at 1 µM (GRK4) [%] | remaining binding at 1 µM (TNK1) [%] | remaining binding at 1 µM [2] [%] | remaining binding at 1 µM (MYLK2) [%] | remaining binding at 1 µM [3] [%] | remaining binding at 1 µM (MYLK) [%]
1 | Clc1cc(NCC2CC2)c2ncc(-c3ccc4[nH]ncc4c3)n2n1 [compound 2, 6-Chloro-N-(cyclopropylmethyl)-3-(1H-indazol-5-yl)imidazo[1,2-b]pyridazin-8-amine] | 89 | 100 | 71 | 42 | 69 | 87 | 82 | 83 | 79
2 | O=C(CN1CCOCC1)N[C@H]1CC[C@H](Nc2cc(Cl)nn3c(-c4ccc5[nH]ncc5c4)cnc23)CC1 [compound 26] | 100 | 100 | 92 | 79 | 100 | 100 | 52 | 59 | 42
3 | CN1CCC(CNc2cc(Cl)nn3c(-c4cc5nc(Nc6ccccc6)[nH]c5cc4F)cnc23)CC1 [compound 31, 6-Chloro-3-(6-fluoro-2-(phenylamino)-1H-benzo[d]imidazol-5-yl)-N-((1-methylpiperidin-4-yl)methyl)imidazo[1,2-b]pyridazin-8-amine] | 73 | 96 | 99 | 100 | 100 | 74 | 89 | 96 | 81
